Active and inactive are the calls of the source. How the calls were made is not given here.
System: GENE-TOX genotoxicity assays, various organisms and cells
Assay: GENE-TOX mutagenicity studies
Conditions: for call: Assay Type: In vivo carcinogenicity studies
Description: GENE-TOX provides genetic toxicology (mutagenicity) test data from expert peer review of open scientific literature for more than 3,000 chemicals from the United States Environmental Protection Agency (EPA). GENE-TOX was established to select assay systems for evaluation, review data in the scientific literature, and recommend proper testing protocols and evaluation procedures for these systems.
GENE-TOX covers the years 1991 - 1998. It is no longer updated.
This is an archive assay for GENE-TOX mutagenicity studies.

[1] = Species/Cell Type: Nonhuman, Assay Code: CCGT, Evaluation Type: Evaluation A (Pre-1980)
[2] = Species/Cell Type: Salmonella typhimurium (one or more of the five standard strains: TA98, TA100, TA1535, TA1537, and TA1538), Assay Type: Histidine reverse gene mutation, Ames assay, Assay Code: SAL-, Evaluation Type: Evaluation A (Pre-1980)
[3] = Species/Cell Type: Mammalian oocytes or early embryo, Assay Type: Chromosome aberrations in vivo, Assay Code: CYO-, Evaluation Type: Evaluation A (Pre-1980)
[4] = Species/Cell Type: Nonhuman, Assay Type: Sister-chromatid exchange (SCE) in vitro, Assay Code: SC2+, Evaluation Type: Evaluation B (Post-1980)
[5] = Species/Cell Type: Salmonella typhimurium (one or more of the five standard strains: TA98, TA100, TA1535, TA1537, and TA1538), Assay Type: Histidine reverse gene mutation, Ames assay, Assay Code: SAL+*, Activation: With metabolic activation, Evaluation Type: Evaluation A (Pre-1980)
[6] = Species/Cell Type: Drosophila melanogaster, Assay Type: Sex-linked recessive lethal gene mutation, Assay Code: SRLT, Evaluation Type: Evaluation A (Pre-1980)
[7] = Species/Cell Type: Human diploid fibroblasts, Assay Type: Unscheduled DNA synthesis (UDS) in vitro, DNA effects, Assay Code: UDH-, Evaluation Type: Evaluation A (Pre-1980)
[8] = Species/Cell Type: Salmonella typhimurium (one or more of the five standard strains: TA98, TA100, TA1535, TA1537, and TA1538), Assay Type: Histidine reverse gene mutation, Ames assay, Assay Code: SALT, Evaluation Type: Evaluation A (Pre-1980)
[9] = Species/Cell Type: Nonhuman, Assay Type: Sister-chromatid exchange (SCE) in vitro, Assay Code: SC2-, Evaluation Type: Evaluation B (Post-1980)
[10] = Species/Cell Type: Neurospora crassa, Assay Type: Aneuploidy, chromosome aberrations, Assay Code: NEN-, Evaluation Type: Evaluation A (Pre-1980)

Q: For `Cc1c2ccccc2c(C)c2c1ccc1ccc(O)cc12`, which mutagenic call (Species/Cell Type: Chinese hamster lung (V79) cells, Assay Type: Forward gene mutation at the HPRT or ouabain locus, Assay Code: V79-*, Activation: With metabolic activation, Evaluation Type: Evaluation A (Pre-1980)) is on record?
A: Its mutagenic call is “inactive; negative”.

Q: And the call [1]?
A: The call was “no conclusion”.

Q: How did the mutagenic call [2] turn out when `Clc1cccc(Br)c1` was run?
A: Its mutagenic call is “inactive; negative”.

Q: `[CH3][Hg][CH3]` was tested. Which mutagenic call [3] did it give?
A: The mutagenic call was “inactive; negative”.

Q: And the mutagenic call (Species/Cell Type: Rodents, Sex: Male, Assay Type: Dominant lethal test, Assay Code: DLTT, Evaluation Type: Evaluation A (Pre-1980))?
A: The mutagenic call was “no conclusion”.

Q: What does the source list for `Cc1cccc2ccc3cc4ccccc4cc3c12`?
A: mutagenic call [4]: active; positive; mutagenic call [5]: active; positive

Q: For `Cc1c2c(c(CO)c3ccc4ccccc4c13)C=C[C@H](O)[C@H]2O`, which call [1] is on record?
A: Its call is “no conclusion”.

Q: `CN/C(=C\[N+](=O)[O-])NCCSCc1ccc(CN(C)C)o1` was tested. Which mutagenic call (Species/Cell Type: Nonhuman, Assay Type: Sister-chromatid exchange (SCE) in vivo, Assay Code: SC3T, Evaluation Type: Evaluation B (Post-1980)) did it give?
A: Its mutagenic call is “no conclusion”.

Q: Which mutagenic call (Species/Cell Type: Saccharomyces cerevisiae, Assay Type: Reverse gene mutation, Assay Code: YERT, Evaluation Type: Evaluation A (Pre-1980)) does the source give for `CN(C)Cc1cc(Br)ccc1OCC(=O)N/N=C/c1ccccc1` here?
A: The mutagenic call was “no conclusion”.

Q: `Cc1cc2nc3c(cc(N)c4ccccc43)oc-2cc1=[N+](C)C` was tested. Which mutagenic call (Species/Cell Type: Bacillus subtilis (H17 vs M45), Assay Type: Rec-assay, spot test, DNA effects (bacterial DNA repair), Assay Code: REW-, Evaluation Type: Evaluation A (Pre-1980)) did it give?
A: The mutagenic call was “inactive; negative”.

Q: Which mutagenic call (Species/Cell Type: Human lymphocytes, Assay Type: Sister-chromatid exchange (SCE) in vitro, Assay Code: SCL-, Evaluation Type: Evaluation B (Post-1980)) does the source give for `NCCc1ccc(O)c(O)c1` here?
A: Its mutagenic call is “inactive; negative”.

Q: What about the mutagenic call (Species/Cell Type: Human, Assay Type: Sister-chromatid exchange (SCE) in vitro, Assay Code: SC1-, Evaluation Type: Evaluation B (Post-1980)) of the same compound?
A: The mutagenic call was “inactive; negative”.

Q: What about the mutagenic call (Species/Cell Type: Mammalian polychromatic erythrocytes, Assay Type: Micronucleus test, chromosome aberrations, Assay Code: MNT-, Evaluation Type: Evaluation B (Post-1980)) of the same compound?
A: The mutagenic call was “inactive; negative”.

Q: Which mutagenic call (Species/Cell Type: Fischer rat embryo (RLV/1706) cells, Assay Type: Cell transformation, viral enhanced, Assay Code: CTR-, Evaluation Type: Evaluation A (Pre-1980)) does the source give for `CCN(N=O)c1ccccc1` here?
A: Its mutagenic call is “inactive; negative”.

Q: What about the mutagenic call (Species/Cell Type: Mouse (BALB/c-3T3) cells, Assay Type: Cell transformation, Assay Code: CTB-, Evaluation Type: Evaluation A (Pre-1980)) of the same compound?
A: The mutagenic call was “inactive; negative”.

Q: And the mutagenic call (Species/Cell Type: Syrian hamster embryo (SHE) cells, Assay Type: Cell transformation, clonal assay, Assay Code: CTC+, Evaluation Type: Evaluation A (Pre-1980))?
A: Its mutagenic call is “active; positive”.

Q: For `CC(F)F`, which mutagenic call [6] is on record?
A: Its mutagenic call is “no conclusion”.

Q: With `OC[C@H]1O[C@@](CO)(O[C@H]2O[C@H](CO)[C@@H](O)[C@H](O)[C@H]2O)[C@@H](O)[C@@H]1O` as the compound, how does the mutagenic call (Species/Cell Type: Mammalian polychromatic erythrocytes, Assay Type: Micronucleus test, chromosome aberrations, Assay Code: MNTT, Evaluation Type: Evaluation A (Pre-1980)) read?
A: Its mutagenic call is “no conclusion”.

Q: What about the mutagenic call (Species/Cell Type: Nonhuman, Assay Type: Sister-chromatid exchange (SCE) in vitro, Assay Code: SC2T, Evaluation Type: Evaluation B (Post-1980)) of the same compound?
A: Its mutagenic call is “no conclusion”.

Q: What does the source list for `CCN(CC)CCn1nc2c3c(c(C)ccc31)Sc1cc(Cl)ccc1-2`?
A: mutagenic call (Species/Cell Type: Drosophila melanogaster, Assay Type: Sex-linked recessive lethal gene mutation, Assay Code: SRL-, Evaluation Type: Evaluation A (Pre-1980)): inactive; negative; mutagenic call (Species/Cell Type: Mouse lymphoma (L5178Y) cells, Assay Type: Forward gene mutation at the thymidine kinase (TK) locus, chromosome aberrations, Assay Code: L51+, Evaluation Type: Evaluation A (Pre-1980)): active; positive; mutagenic call (Species/Cell Type: Neurospora crassa, Assay Type: Forward gene mutation, Assay Code: NEF+, Evaluation Type: Evaluation A (Pre-1980)): active; positive; mutagenic call [5]: active; positive

Q: With `O=[N+]([O-])c1ccc(O/N=C/c2cc(Br)c(O)c(Br)c2)c([N+](=O)[O-])c1` as the compound, how does the mutagenic call (Species/Cell Type: Saccharomyces cerevisiae, Assay Type: Mitotic recombination or gene conversion, Assay Code: YEC-, Evaluation Type: Evaluation A (Pre-1980)) read?
A: The mutagenic call was “inactive; negative”.

Q: How did the mutagenic call [7] turn out when `CCCCCc1cc(OC(=O)CCCN2CCOCC2)c2c(c1)OC(C)(C)[C@@H]1CCC(C)=C[C@@H]21` was run?
A: The mutagenic call was “inactive; negative”.

Q: For `CC(=O)OC[C@H]1O[C@@H](Oc2ccc(O)c3c2C(=O)c2ccccc2C3=O)[C@H](OC(C)=O)[C@@H](OC(C)=O)[C@@H]1OC(C)=O`, which mutagenic call [8] is on record?
A: The mutagenic call was “no conclusion”.

Q: How did the mutagenic call (Species/Cell Type: Allium cepa, Assay Type: Chromosome aberrations, Assay Code: ALC+, Evaluation Type: Evaluation A (Pre-1980)) turn out when `CS(=O)(=O)OC[C@@H](O)[C@H](O)COS(C)(=O)=O` was run?
A: Its mutagenic call is “active; positive”.

Q: And the mutagenic call (Species/Cell Type: Arabidopsis species, Assay Type: Gene mutation, Assay Code: ARM+, Evaluation Type: Evaluation A (Pre-1980))?
A: Its mutagenic call is “active; positive”.

Q: With `N#CCCN1CC1` as the compound, how does the mutagenic call (Species/Cell Type: Schizosaccharomyces pombe, Assay Type: Reverse gene mutation, Assay Code: YEZ+, Evaluation Type: Evaluation A (Pre-1980)) read?
A: The mutagenic call was “active; positive”.

Q: How did the mutagenic call [3] turn out when `CC(=O)[O-].CC(=O)[O-].[Hg+2]` was run?
A: The mutagenic call was “inactive; negative”.

Q: And the mutagenic call [9]?
A: Its mutagenic call is “inactive; negative”.

Q: With `COC(=O)Nc1ncc(-c2ccc(OC)cc2)[nH]1` as the compound, how does the mutagenic call (Species/Cell Type: Salmonella typhimurium, Assay Type: Forward and reverse gene mutation, host-mediated assay, Assay Code: HMA+, Evaluation Type: Evaluation A (Pre-1980)) read?
A: The mutagenic call was “active; positive”.

Q: For `Cc1ccc2cc3c(ccc4ccccc43)c3c2c1C(O)C3O` (configuration not stated), which mutagenic call (Species/Cell Type: Mouse prostate cells, Assay Type: Cell transformation, Assay Code: CTM+D, Dose Response: With dose response, Evaluation Type: Evaluation A (Pre-1980)) is on record?
A: Its mutagenic call is “active; positive”.

Q: How did the mutagenic call (Species/Cell Type: Mammalian polychromatic erythrocytes, Assay Type: Micronucleus test, chromosome aberrations, Assay Code: MNTT, Evaluation Type: Evaluation B (Post-1980)) turn out when `CCN(CC)C(=S)SSC(=S)N(CC)CC` was run?
A: Its mutagenic call is “no conclusion”.

Q: And the call (Species/Cell Type: Nonhuman, Assay Code: CCG-, Evaluation Type: Evaluation A (Pre-1980))?
A: The call was “inactive; negative”.

Q: Which results are given for `CN1CCC[C@H]1c1cccnc1`?
A: mutagenic call [10]: inactive; negative; mutagenic call [4]: active; positive; mutagenic call [2]: inactive; negative

Q: With `CC(C)C[C@H](NC(=O)CNC(=O)[C@H](Cc1ccc(O)cc1)NC(=O)[C@H](CO)NC(=O)[C@H](Cc1c[nH]c2ccccc12)NC(=O)[C@H](Cc1cnc[nH]1)NC(=O)[C@@H]1CCC(=O)N1)C(=O)N[C@@H](CCCN=C(N)N)C(=O)N1CCC[C@H]1C(=O)NCC(N)=O` as the compound, how does the mutagenic call (Species/Cell Type: Human, Sex: Male, Assay Type: Sperm morphology, Assay Code: SPHT, Evaluation Type: Evaluation A (Pre-1980)) read?
A: Its mutagenic call is “no conclusion”.

Q: For `COc1cc2c(c3oc(=O)c4c(c13)CCC4=O)[C@@H]1C(Cl)C(O)O[C@@H]1O2` (some centres not stated), which mutagenic call [8] is on record?
A: The mutagenic call was “no conclusion”.

Q: `Cc1cc2ccccc2c2cc3ccccc3cc12` was tested. Which mutagenic call (Species/Cell Type: Nonhuman, Assay Type: Sister-chromatid exchange (SCE) in vitro, Assay Code: SC2+D, Dose Response: With dose response, Evaluation Type: Evaluation B (Post-1980)) did it give?
A: Its mutagenic call is “active; positive”.

Q: And the mutagenic call [9]?
A: Its mutagenic call is “inactive; negative”.

Q: And the mutagenic call [5]?
A: The mutagenic call was “active; positive”.

Q: For `COc1c(Cl)ccc(Cl)c1C(=O)O`, which mutagenic call (Species/Cell Type: Bacillus subtilis (H17 vs M45), Assay Type: Rec-assay, spot test, DNA effects (bacterial DNA repair), Assay Code: REW+, Evaluation Type: Evaluation A (Pre-1980)) is on record?
A: Its mutagenic call is “active; positive”.

Q: What about the mutagenic call [6] of the same compound?
A: The mutagenic call was “no conclusion”.

Q: And the mutagenic call (Species/Cell Type: Escherichia coli polA (W3119 vs P3478), Assay Type: Rec-assay, DNA effects (bacterial DNA repair), Assay Code: RE1+, Evaluation Type: Evaluation A (Pre-1980))?
A: Its mutagenic call is “active; positive”.

Q: And the mutagenic call (Species/Cell Type: Hordeum vulgare (barley), Assay Type: Chromosome aberrations, Assay Code: HOC+, Evaluation Type: Evaluation A (Pre-1980))?
A: The mutagenic call was “active; positive”.

Q: What about the mutagenic call [7] of the same compound?
A: The mutagenic call was “inactive; negative”.

Q: What about the mutagenic call (Species/Cell Type: Saccharomyces cerevisiae, Assay Type: Mitotic recombination or gene conversion, Assay Code: YEH-, Evaluation Type: Evaluation A (Pre-1980)) of the same compound?
A: Its mutagenic call is “inactive; negative”.

Q: What about the mutagenic call [2] of the same compound?
A: Its mutagenic call is “inactive; negative”.

Q: With `CCn1c2ccccc2c2cc(N)ccc21` as the compound, how does the call (Species/Cell Type: Nonhuman, Assay Code: CCG+, Evaluation Type: Evaluation A (Pre-1980)) read?
A: The call was “active; positive”.

Q: With `Nc1ccc(S(N)(=O)=O)cc1` as the compound, how does the mutagenic call (Species/Cell Type: Aspergillus nidulans, Assay Type: Aneuploidy, chromosome aberrations, Assay Code: ASN-, Evaluation Type: Evaluation A (Pre-1980)) read?
A: The mutagenic call was “inactive; negative”.

Q: What about the mutagenic call (Species/Cell Type: Aspergillus nidulans, Assay Type: Mitotic recombination, Assay Code: ASG+, Evaluation Type: Evaluation A (Pre-1980)) of the same compound?
A: The mutagenic call was “active; positive”.

Q: What about the mutagenic call [10] of the same compound?
A: Its mutagenic call is “inactive; negative”.

Q: And the call [1]?
A: Its call is “no conclusion”.

Q: With `NC(Cc1ccc(Oc2ccc(N(CCCl)CCCl)cc2)cc1)C(=O)O` (configuration not stated) as the compound, how does the mutagenic call (Species/Cell Type: Drosophila melanogaster, Assay Type: Sex-linked recessive lethal gene mutation, Assay Code: SRL+, Evaluation Type: Evaluation A (Pre-1980)) read?
A: Its mutagenic call is “active; positive”.

Source: PubChem BioAssay AID1259408 (Genetic Toxicology Data Bank (GENE-TOX), 2018)
